Data: patent US10022342B2, “Methods and compositions for treating multiple myeloma” (Ohio State Innovation Foundation, priority 2015, dated 2018)

Tests used:
CD44 mRNA = CD44 mRNA by qRT-PCR in MM cells; assay type: cell-based, human
Protocol: Reduction of CD44 mRNA and protein persisted for 48 hours after treatment (FIGS. 2C-2D and data not shown).
(§1) Quantitative real time-PCR (qRT-PCR) was performed with the TaqMan method (Applied Biosystems), according to the manufacturer's instructions, and analyzed with the 7900HT Sequence Detection System (Applied Biosystems). The appropriate TaqMan probes for mRNA, miRNA, and pri-miRNA quantification were purchased from Applied Biosystems, and all reactions were performed in triplicate. The following probes were used: hsa-miR-9-5p (000583), hsa-mir-9-1 (Hs03303201_pri), hsa-miR-9-2 (Hs03303202_pri), hsa-mir-9-3 (Hs03293595_pri), CD44 (Hs01075861_ml), IGF2BP3 (Hs00559907_g1). Simultaneous quantification of ornithine decarboxylase antizyme 1 (OAZ1), or GAPDH mRNAs were used as a reference for mRNA data normalization, while small endogenous nucleolar RNA U44/U48, or U6 were used for miRNA normalization. The relative expression levels were calculated by the comparative cycle threshold (Ct) method (User Bulletin #2; Applied Biosystems). Expression analyses of pre-miRNA was performed with SYBR green PCR master mix (Applied Biosystems) and normalized for U6 RNA. All primers used for amplification steps are listed in the Supplementary materials and methods.

CD44 [1] = assay: CD44 levels in MM.1S subcutaneous xenograft mice (IHC, serum ELISA); assay type: in vivo; conditions: 25 mg/kg, 2 injections
Protocol: To investigate if AR-42 treatment could affect CD44 expression in vivo, a xenograft MM mouse model was created by injecting 1×10^7 viable cells of MM.1S cell line subcutaneously into the right flank of 12 NOD-SCID mice. […] One group of mice (n=4) received intra-peritoneal injections of 25 mg/kg AR-42, while the second group (n=4) was injected with vehicle control (8% DMSO in PBS; Ctrl). Injections were administered once a day (on Monday and Wednesday). Because the anti-tumor activity of AR-42 has been previously reported in preclinical mouse studies, mice were sacrificed 2 days after the second injection in order to avoid tumor size reduction. […] Tumors were excised and used for CD44 immunohistochemical (IHC) studies, while the serum was collected for ELISA assays. […] Thus, AR-42 down-regulates CD44 directly in vivo.
Blood from xenografted mice (0.6 ml/kg) was collected by retro-orbital bleeding and serum was obtained by centrifuging it at 1500×g for 10 min. […] Finally, 100 […] of Stop Reagent was added and absorbance was read on a spectrophotometer at 450 nm. Soluble CD44 (sCD44) content was calculated based on the readings from the standard and sample dilution factor.
Animal experiments were performed according to OSU institutional guidelines. […] The tumor size was measured once a week using a caliper, and the volume was calculated in cubed millimeters (mm3), using the formula L×W2/2. […]

CD44 [2] = assay: CD44 expression in whole bone marrow of MM patients by flow cytometry; assay type: cell-based, human; conditions: 24 hrs; all 5 Len-refractory and 2 of the 3 newly diagnosed MM patients
Protocol: Since MM cell survival is strongly dependent on microenvironment, the effects of AR-42 in combination with Len on MM cell killing in the context of the bone marrow (BM) milieu was examined. Total BM samples obtained from 5 Len-refractory MM (patients 1, 2, 3, 4, and 7) and 3 newly diagnosed MM patients (patients 5, 6, and 8) were treated with AR-42 (0.2 μM) and Len (5 μM) as single agents, and in combination. […] The BM cells from the same patients were used to assess CD44 expression at 24 hrs after AR-42 treatment.
CD44 surface expression was analyzed by staining cells with CD44-FITC antibody (BD Biosciences) for 30 min. in the dark, at room temperature. Apoptosis was measured by Annexin V-FITC and Propidium Iodide (PI) (Clontech) staining for 15 min. in the dark, at room temperature and data immediately acquired on a Beckman Coulter FC500 (Beckman Coulter) machine. Analysis was conducted using the FlowJo Software vX.0.7 (Tree Star Inc.). For the multiparametric analysis, the bone marrow samples were stained with CD38-PE (347687; BD Bioscience), CD138-APC (347193; BD Bioscience), CD45-ECD (A07784; Beckman Coulter), CD44-FITC (BD Bioscience) and AnnexinV-FITC (Clontech) for 30 minutes, washed with PBS and immediately analyzed with Gallios cytometer (Beckman Coulter).
Mouse data were evaluated by ANOVA, and synergy between AR-42 and Len was tested by interaction contrast. […]

miR-9-5p = miR-9-5p expression by stem loop qRT-PCR; assay type: cell-based, human; conditions: 24 hours, dose dependent, vs control
Protocol: 51 miRNAs were differentially expressed between the two groups.
as §1

Question: For `CC(C)[C@H](C(=O)Nc1ccc(C(=O)NO)cc1)c1ccccc1` [AR-42, (S)-N-hydroxy-4-(3-methyl-2-phenylbutanamido)benzamide], which “persistence of reduction of CD44 mRNA and protein after treatment” value (CD44 mRNA) is on record?
Answer: The value was 48 h.

Question: What about the “CD44 mRNA” value (CD44 mRNA; 24-hr treatment, dose-dependent, vs DMSO control) of the same compound?
Answer: Its value is “consistently downregulated”.

Question: What about the “soluble CD44 in serum (ELISA)” value (CD44 [1]) of the same compound?
Answer: The value was “decreased levels”.

Question: And the “CD44 staining of tumor sections (IHC)” value (CD44 [1]; vs control group)?
Answer: The value was “significant lower CD44 staining”.

Question: What about the “CD44 expression in whole BM” value (CD44 [2]) of the same compound?
Answer: Its value is “Downregulation”.

Question: What about the miR-9-5p expression levels (miR-9-5p) of the same compound?
Answer: Its miR-9-5p expression levels is “increased”.
